In ChEMBL document CHEMBL6109182, “Regio- and Stereoselective Synthesis of Nitro-fatty Acids as NRF2 Pathway Activators Working under Ambient or Hypoxic Conditions” (J Med Chem, 2025):
Calls of active or inactive are those of the source. The calls are words filed in the database; no cut-off is given here.

Columns and labels:
[1] = target: T1, Nuclear factor erythroid 2-related factor 2 (Mus musculus) (UniProt Q60795); assay: Activation of NRF2 in C57BL/6 mouse bone marrow cells assessed as nuclear translocation of NRF2 exposed to 1% oxygen at 2 uM incubated for 1 hr by Western blot analysis; format: cell-based; details: Bone marrow cell
T1 sequence (whole entry): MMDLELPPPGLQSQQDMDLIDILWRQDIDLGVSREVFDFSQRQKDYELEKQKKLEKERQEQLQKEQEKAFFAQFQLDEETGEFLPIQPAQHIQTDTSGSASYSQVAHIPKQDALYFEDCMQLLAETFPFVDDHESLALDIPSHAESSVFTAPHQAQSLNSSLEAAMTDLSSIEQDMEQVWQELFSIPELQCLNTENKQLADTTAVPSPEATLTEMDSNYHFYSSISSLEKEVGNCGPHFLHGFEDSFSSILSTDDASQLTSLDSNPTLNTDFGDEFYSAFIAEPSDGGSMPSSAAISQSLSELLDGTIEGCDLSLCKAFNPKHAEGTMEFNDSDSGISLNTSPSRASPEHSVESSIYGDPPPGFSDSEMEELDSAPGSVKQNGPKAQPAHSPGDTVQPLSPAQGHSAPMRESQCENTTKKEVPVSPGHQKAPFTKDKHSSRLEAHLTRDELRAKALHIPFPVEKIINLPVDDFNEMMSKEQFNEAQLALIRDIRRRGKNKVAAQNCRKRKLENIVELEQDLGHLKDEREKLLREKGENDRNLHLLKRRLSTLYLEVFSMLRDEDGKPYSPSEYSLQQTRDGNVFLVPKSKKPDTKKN

[2] = target: T1, Nuclear factor erythroid 2-related factor 2 (Mus musculus); assay: Activation of NRF2 in C57BL/6 mouse bone marrow cells assessed as increase in Gclm gene expression exposed to 4% oxygen at 2 uM incubated for 4 hrs by qRT-PCR analysis; format: cell-based; details: Bone marrow cell
[3] = target: T1, Nuclear factor erythroid 2-related factor 2 (Mus musculus); assay: Activation of NRF2 in C57BL/6 mouse bone marrow cells assessed as increase in Gclm gene expression exposed to 1% oxygen at 2 uM incubated for 4 hrs by qRT-PCR analysis; format: cell-based; details: Bone marrow cell
[4] = target: T1, Nuclear factor erythroid 2-related factor 2 (Mus musculus); assay: Induction of NRF2 stabilization in C57BL/6 mouse bone marrow cells exposed to 21% oxygen at 2 uM incubated for 1 hr; format: cell-based; details: Bone marrow cell
[5] = target: T1, Nuclear factor erythroid 2-related factor 2 (Mus musculus); assay: Activation of NRF2 in C57BL/6 mouse bone marrow cells assessed as increase in GCLM level exposed to 21% oxygen at 2 uM incubated for 7 hrs by Western blot analysis; format: cell-based; details: Bone marrow cell
[6] = target: T1, Nuclear factor erythroid 2-related factor 2 (Mus musculus); assay: Activation of NRF2 in C57BL/6 mouse bone marrow cells assessed as nuclear translocation of NRF2 exposed to 1% oxygen at 2 uM incubated for 1 hr by IHC analysis; format: cell-based; details: Bone marrow cell, filed as activator
[7] = target: T1, Nuclear factor erythroid 2-related factor 2 (Mus musculus); assay: Activation of NRF2 in C57BL/6 mouse bone marrow cells assessed as increase in Hmox1 gene expression exposed to 1% oxygen at 2 uM incubated for 4 hrs by qRT-PCR analysis; format: cell-based; details: Bone marrow cell
[8] = target: T1, Nuclear factor erythroid 2-related factor 2 (Mus musculus); assay: Activation of NRF2 in C57BL/6 mouse bone marrow cells assessed as increase in GCLM level exposed to 1% oxygen at 2 uM incubated for 7 hrs by Western blot analysis; format: cell-based; details: Bone marrow cell
[9] = target: T1, Nuclear factor erythroid 2-related factor 2 (Mus musculus); assay: Induction of NRF2 stabilization in C57BL/6 mouse bone marrow cells exposed to 4% oxygen at 2 uM incubated for 1 hr; format: cell-based; details: Bone marrow cell
Bone marrow cell = assay: Upregulation of Nfe2l2 gene expression in C57BL/6 mouse bone marrow cells exposed to 4% oxygen at 2 uM incubated for 4 hrs by qRT-PCR analysis; format: functional, cell-based
[10] = target: T1, Nuclear factor erythroid 2-related factor 2 (Mus musculus); assay: Induction of NRF2 stabilization in C57BL/6 mouse bone marrow cells exposed to 1% oxygen at 2 uM incubated for 1 hr; format: cell-based; details: Bone marrow cell
[11] = target: T1, Nuclear factor erythroid 2-related factor 2 (Mus musculus); assay: Activation of NRF2 in C57BL/6 mouse bone marrow cells exposed to 21% oxygen at 2 uM incubated for 1 hr; format: cell-based; details: Bone marrow cell
[12] = target: T1, Nuclear factor erythroid 2-related factor 2 (Mus musculus); assay: Activation of NRF2 in C57BL/6 mouse bone marrow cells assessed as increase in HO-1 level exposed to 21% oxygen at 2 uM incubated for 4 hrs by Western blot analysis; format: cell-based; details: Bone marrow cell, filed as activator
[13] = target: T1, Nuclear factor erythroid 2-related factor 2 (Mus musculus); assay: Activation of NRF2 in C57BL/6 mouse bone marrow cells exposed to 1% oxygen at 2 uM incubated for 1 hr; format: cell-based; details: Bone marrow cell
[14] = target: T1, Nuclear factor erythroid 2-related factor 2 (Mus musculus); assay: Activation of NRF2 in C57BL/6 mouse bone marrow cells assessed as increase in Hmox1 gene expression exposed to 4% oxygen at 2 uM incubated for 4 hrs by qRT-PCR analysis; format: cell-based; details: Bone marrow cell
[15] = target: T1, Nuclear factor erythroid 2-related factor 2 (Mus musculus); assay: Activation of NRF2 in C57BL/6 mouse bone marrow cells exposed to 4% oxygen at 2 uM incubated for 1 hr; format: cell-based; details: Bone marrow cell
[16] = target: T1, Nuclear factor erythroid 2-related factor 2 (Mus musculus); assay: Activation of NRF2 in C57BL/6 mouse bone marrow cells assessed as fold increase in HO-1 level exposed to hypoxic condition at 2 uM incubated for 4 hrs by Western blot analysis; format: cell-based; details: Bone marrow cell, filed as activator
[17] = target: T1, Nuclear factor erythroid 2-related factor 2 (Mus musculus); assay: Activation of NRF2 in C57BL/6 mouse bone marrow cells assessed as fold increase in HO-1 level exposed to 1% oxygen at 2 uM incubated for 4 hrs by Western blot analysis relative to control; format: cell-based; details: Bone marrow cell, filed as activator

SMILES | Activity ([1]; filed as activator) | Activity ([2]; filed as activator) | Activity ([3]; filed as activator) | Activity [4] | Activity ([5]; filed as activator) | Activity ([7]; filed as activator) | Activity ([8]; filed as activator) | Activity [9] | Activity (Bone marrow cell) | Activity [10] | Activity [11] | Activity [12] | Activity ([13]; filed as activator) | Activity ([14]; filed as activator) | Activity ([15]; filed as activator) | further results
CCCCCCCC/C(=C\CCCCCCCC(=O)O)[N+](=O)[O-] | Active | Active | Active | Active | Active | Active | Active | Active | inactive | Active | inactive | Active | Active | Active |  | Activity [6]: Active
CCCCCCC=C/C=C(\CCCCCCCC(=O)O)[N+](=O)[O-] |  | Active; Compound Exhibited Upregulation That Was Dependent On Oxygen Levels Or Specific Target Genes | Active; Compound Exhibited Upregulation That Was Dependent On Oxygen Levels Or Specific Target Genes | Active |  | Active; Compound Exhibited Upregulation That Was Dependent On Oxygen Levels Or Specific Target Genes |  | Active | inactive | Active | inactive |  | Active | Active; Compound Exhibited Upregulation That Was Dependent On Oxygen Levels Or Specific Target Genes | Active | 
CCCCCCCCC(CCCCCCCCC(=O)O)[N+](=O)[O-] (configuration not stated) |  |  |  | Active |  |  |  | Active | inactive | Active | inactive |  |  |  |  | Activity [1]: inactive; Activity [2]: inactive; Activity [3]: inactive; Activity [5]: inactive; Activity [7]: inactive; Activity [8]: inactive; Activity [13]: inactive; Activity [14]: inactive; Activity [15]: inactive
CCCCC/C=C\C/C(=C\CCCCCCCC(=O)O)[N+](=O)[O-] |  | Active; Compound Exhibited Upregulation That Was Dependent On Oxygen Levels Or Specific Target Genes | Active; Compound Exhibited Upregulation That Was Dependent On Oxygen Levels Or Specific Target Genes | Active | Active | Active; Compound Exhibited Upregulation That Was Dependent On Oxygen Levels Or Specific Target Genes |  | Active | inactive | Active | inactive |  |  | Active; Compound Exhibited Upregulation That Was Dependent On Oxygen Levels Or Specific Target Genes | Active | Activity [16]: Active
CCCCCCCC/C=C(\CCCCCCCC(=O)O)[N+](=O)[O-] | Active | Active | Active | Active | Active | Active | Active | Active | Active | Active | inactive | Active | Active | Active |  | fold change (FC) [17]: 1.8
